Where a name gives a salt, the structure may show the parent alone.
Key:
[1] = ex vivo, data not shown
[2] = data not shown
[3] = Injection matrix stability; details: 72 h at 4°C, compared to the previously run curve; data not shown
[4] = Plasma concentrations in mice after rectal enema dosing of TAF or CMX157; assay type: in vivo
[5] = for number of freeze-thaw cycles for which stable: plasma, -80°C
[6] = cited from earlier work
[7] = 72 h
[8] = following a single 25 mg dose of TAF; ref 24 (Custodio and colleagues); cited from earlier work
[9] = human, 244 days
[10] = human, 24 h

Structure (SMILES): CCCCCCCCCCCCCCCCOCCCOP(=O)(O)CO[C@H](C)Cn1cnc2c(N)ncnc21 [CMX157, hexadecyloxypropyl tenofovir]
- time up to which stable in whole blood [1]: ≤ 8 h

Structure (SMILES): CC(C)OC(=O)[C@H](C)N[P@](=O)(CO[C@H](C)Cn1cnc2c(N)ncnc21)Oc1ccccc1 [TAF, tenofovir alafenamide fumarate]
- stability in mouse plasma as compared to human matrices [2]: less stable
- injection matrix stability [3]: unstable
- time up to which stable in whole blood [1]: up to 1 h
- plasma TAF/TFV ratio ([4]; colonic administration of TAF, mice): < 1
- time for conversion of TAF into TFV ([4]; mice dosed rectally with TAF): less than 15 minutes
- plasma samples with detectable systemic TAF ([4]; mice, rectal TAF): 60%
- number of freeze-thaw cycles for which stable [5]: two

Structure (SMILES): CC(C)OC(=O)OCOP(=O)(CO[C@H](C)Cn1cnc2c(N)ncnc21)OCOC(=O)OC(C)C [TDF, tenofovir disoproxil fumarate]
- increase in TFV bioavailability by prodrug administration [6]: 25%

Structure (SMILES): C[C@H](Cn1cnc2c(N)ncnc21)OCP(=O)(O)O [TFV, tenofovir]
- injection matrix stability %DIF [7]: −8.44-5.57%
- Cmax [8]: 9.5 ng/mL
- long term storage stability %DIF [9]: ≤ ±10.5%
- sample matrix stability %DIF [10]: -14.5-8.45%
- freeze-thaw stability %DIF ([5]; human): -15.2-3.04%
- number of freeze-thaw cycles for which stable [5]: three
